Assay results reported in ChEMBL document CHEMBL3596196, “In vitro evaluation and in silico screening of synthetic acetylcholinesterase inhibitors bearing functionalized piperidine pharmacophores” (Bioorg Med Chem, 2015).

Each compound was assayed against Acetylcholinesterase (Homo sapiens, UniProt P22303) (assay: Inhibition of human acetylcholinesterase using ATCI/DTNB as substrate preincubated for 30 mins followed by substrate addition measured for 60 mins by Ellman method). Conditions: not given; call rule not given here.
Acetylcholinesterase, sequence (P22303 whole entry): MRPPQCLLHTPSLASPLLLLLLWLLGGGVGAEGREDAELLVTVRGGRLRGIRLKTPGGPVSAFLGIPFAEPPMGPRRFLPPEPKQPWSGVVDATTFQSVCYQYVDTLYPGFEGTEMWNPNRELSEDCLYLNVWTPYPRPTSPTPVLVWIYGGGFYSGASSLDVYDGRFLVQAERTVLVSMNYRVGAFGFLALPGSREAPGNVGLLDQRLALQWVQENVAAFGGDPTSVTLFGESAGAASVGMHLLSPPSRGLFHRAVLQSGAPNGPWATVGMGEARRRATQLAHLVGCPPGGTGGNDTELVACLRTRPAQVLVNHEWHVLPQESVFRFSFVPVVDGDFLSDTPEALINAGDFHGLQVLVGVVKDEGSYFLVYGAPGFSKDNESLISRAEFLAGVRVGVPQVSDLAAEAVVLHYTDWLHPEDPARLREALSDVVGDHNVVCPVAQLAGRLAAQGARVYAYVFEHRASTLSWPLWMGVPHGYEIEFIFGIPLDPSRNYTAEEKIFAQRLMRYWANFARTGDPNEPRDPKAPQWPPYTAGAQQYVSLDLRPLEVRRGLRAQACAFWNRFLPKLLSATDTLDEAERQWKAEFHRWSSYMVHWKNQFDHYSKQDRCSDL

Row | Structure (SMILES) | IC50
1 | COC(=O)C1=C(Nc2ccccc2)C[C@@H](c2ccccc2[N+](=O)[O-])N(c2ccccc2)[C@@H]1c1ccccc1[N+](=O)[O-] | Not Active

Same assay, conditions: read-out: IC50

Row | Structure (SMILES) | IC50 [µM]
2 | COC(=O)C1=C(Nc2ccccc2)C[C@@H](c2ccc3c(c2)OCO3)N(c2ccccc2)[C@@H]1c1ccc2c(c1)OCO2 | 3270

Same assay, conditions: read-out: pIC50 (converted)

Row | Structure (SMILES) | IC50 [µM]
3 | COC(=O)C1=C(Nc2ccc(Br)cc2)C[C@@H](c2ccc(OC)cc2)N(c2ccc(Br)cc2)[C@@H]1c1ccc(OC)cc1 | 2.16
4 | COC(=O)C1=C(Nc2ccc(C)cc2)C[C@@H](c2ccc(C)cc2)N(c2ccc(C)cc2)[C@@H]1c1ccc(C)cc1 | 6.78
5 | COC(=O)C1=C(Nc2ccccc2)C[C@@H](c2ccccc2)N(c2ccccc2)[C@@H]1c1ccccc1 | 6.52
6 | COC(=O)C1=C(Nc2ccc(Br)cc2)C[C@@H](c2ccc(C)cc2)N(c2ccc(Br)cc2)[C@@H]1c1ccc(C)cc1 | 2.48
7 | CCOC(=O)C1=C(Nc2ccc(F)cc2)C[C@@H](c2ccc(Cl)cc2)N(c2ccc(F)cc2)[C@@H]1c1ccc(Cl)cc1 | 0.55
8 | CCOC(=O)C1=C(Nc2ccccc2)C[C@@H](c2ccc(F)cc2)N(c2ccccc2)[C@@H]1c1ccc(F)cc1 | 0.39
9 | CCOC(=O)C1=C(Nc2ccc(C)cc2)C[C@@H](c2ccccc2)N(c2ccc(C)cc2)[C@@H]1c1ccccc1 | 5.18
10 | CCOC(=O)C1=C(Nc2ccc(OC)cc2)C[C@@H](c2ccccc2)N(c2ccc(OC)cc2)[C@@H]1c1ccccc1 | 2.25
11 | COC(=O)C1=C(Nc2ccc(Br)cc2)C[C@@H](c2ccc(Cl)cc2)N(c2ccc(Br)cc2)[C@@H]1c1ccc(Cl)cc1 | 0.879
12 | CCOC(=O)C1=C(Nc2ccc(Cl)cc2)C[C@@H](c2ccccc2)N(c2ccc(Cl)cc2)[C@@H]1c1ccccc1 | 4.6
13 | CC(C)(C)OC(=O)C1=C(Nc2ccccc2)C[C@@H](c2ccccc2)N(c2ccccc2)[C@@H]1c1ccccc1 | 2.79
14 | COC(=O)C1=C(Nc2ccc(Cl)cc2)C[C@@H](c2ccc(F)cc2)N(c2ccc(Cl)cc2)[C@@H]1c1ccc(F)cc1 | 0.71
15 | COC(=O)C1=C(Nc2ccccc2)C[C@@H](c2ccc(Cl)cc2)N(c2ccccc2)[C@@H]1c1ccc(Cl)cc1 | 0.879
16 | COC(=O)C1=C(Nc2ccccc2)C[C@@H](c2ccc3c(c2)OCO3)N(c2ccccc2)[C@@H]1c1ccc2c(c1)OCO2 | 0.511
17 | CCOC(=O)C1=C(Nc2ccccc2)C[C@@H](c2ccccc2)N(c2ccccc2)[C@@H]1c1ccccc1 | 2.95
18 | CCOC(=O)C1=C(Nc2ccccc2)C[C@@H](c2ccc(C)cc2)N(c2ccccc2)[C@@H]1c1ccc(C)cc1 | 5.58
19 | CCOC(=O)C1=C(Nc2ccc(Cl)cc2)C[C@@H](c2ccc(OC)cc2)N(c2ccc(Cl)cc2)[C@@H]1c1ccc(OC)cc1 | 0.38
20 | COC(=O)C1=C(Nc2ccc(F)cc2)C[C@@H](c2ccc(F)cc2)N(c2ccc(F)cc2)[C@@H]1c1ccc(F)cc1 | 3.2
21 | CCOC(=O)C1=C(Nc2ccc(OC)cc2)C[C@@H](c2ccc(C)cc2)N(c2ccc(OC)cc2)[C@@H]1c1ccc(C)cc1 | 4.98
22 | CCOC(=O)C1=C(Nc2ccc(C)cc2)C[C@@H](c2ccc(Cl)cc2)N(c2ccc(C)cc2)[C@@H]1c1ccc(Cl)cc1 | 5.4
23 | COC(=O)C1=C(Nc2ccc(F)cc2)C[C@@H](c2ccccc2)N(c2ccc(F)cc2)[C@@H]1c1ccccc1 | 15.1
24 | COC(=O)C1=C(Nc2ccc(OC)cc2)C[C@@H](c2ccc(C)cc2)N(c2ccc(OC)cc2)[C@@H]1c1ccc(C)cc1 | 5.83
25 | COC(=O)C1=C(Nc2ccc(Cl)cc2)C[C@@H](c2ccc(C)cc2)N(c2ccc(Cl)cc2)[C@@H]1c1ccc(C)cc1 | 2.15
26 | COC(=O)C1=C(Nc2ccccc2)C[C@@H](c2ccc(C)cc2)N(c2ccccc2)[C@@H]1c1ccc(C)cc1 | 5.73
